Source: ChEMBL document CHEMBL1138234, “Planarity and constraint of the carbonyl groups in 1,2-diones are determinants for selective inhibition of human carboxylesterase 1” (J Med Chem, 2007)

Columns and labels:
[1] = biological target: T1, Liver carboxylesterase 1 (Homo sapiens, UniProt P23141); assay: Inhibition of human carboxylesterase 1
T1 sequence (P23141 whole entry): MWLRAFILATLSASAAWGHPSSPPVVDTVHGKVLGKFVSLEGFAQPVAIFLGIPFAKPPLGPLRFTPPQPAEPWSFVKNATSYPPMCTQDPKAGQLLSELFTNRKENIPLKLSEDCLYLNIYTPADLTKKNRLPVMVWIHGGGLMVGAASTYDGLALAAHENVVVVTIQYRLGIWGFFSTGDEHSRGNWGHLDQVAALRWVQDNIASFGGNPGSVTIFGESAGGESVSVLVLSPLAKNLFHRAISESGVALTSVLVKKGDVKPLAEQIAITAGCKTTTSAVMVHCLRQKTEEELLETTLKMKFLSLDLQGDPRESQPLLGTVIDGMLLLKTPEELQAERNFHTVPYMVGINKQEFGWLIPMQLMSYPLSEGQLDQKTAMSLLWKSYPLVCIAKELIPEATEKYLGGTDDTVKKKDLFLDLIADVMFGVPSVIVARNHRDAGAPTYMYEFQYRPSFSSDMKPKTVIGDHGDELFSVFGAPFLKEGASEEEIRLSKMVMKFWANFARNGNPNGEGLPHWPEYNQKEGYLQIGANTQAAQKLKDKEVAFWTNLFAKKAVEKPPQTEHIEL

[2] = biological target: Acetylcholinesterase (Homo sapiens, UniProt P22303); assay: Inhibition of human acetylcholinesterase 1
Acetylcholinesterase, sequence (P22303 whole entry): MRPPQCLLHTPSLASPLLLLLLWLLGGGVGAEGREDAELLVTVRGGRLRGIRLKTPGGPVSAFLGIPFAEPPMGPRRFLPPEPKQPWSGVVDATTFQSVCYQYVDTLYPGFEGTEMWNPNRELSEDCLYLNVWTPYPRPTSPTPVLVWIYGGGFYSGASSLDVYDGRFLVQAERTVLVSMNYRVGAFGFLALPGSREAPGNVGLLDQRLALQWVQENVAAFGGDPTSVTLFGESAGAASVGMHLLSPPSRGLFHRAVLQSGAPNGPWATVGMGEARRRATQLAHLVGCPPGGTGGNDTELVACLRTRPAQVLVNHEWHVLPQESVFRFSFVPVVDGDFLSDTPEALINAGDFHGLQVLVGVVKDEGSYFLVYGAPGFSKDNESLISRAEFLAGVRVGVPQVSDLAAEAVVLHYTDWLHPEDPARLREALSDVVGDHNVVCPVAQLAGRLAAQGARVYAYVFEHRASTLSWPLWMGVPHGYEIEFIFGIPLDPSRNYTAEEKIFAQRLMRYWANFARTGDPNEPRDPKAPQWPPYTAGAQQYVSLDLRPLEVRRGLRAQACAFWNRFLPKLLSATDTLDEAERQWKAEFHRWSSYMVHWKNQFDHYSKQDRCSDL

[3] = biological target: Cholinesterase (Homo sapiens, UniProt P06276); assay: Inhibition of human butyrylcholinesterase
Cholinesterase, sequence (P06276 whole entry): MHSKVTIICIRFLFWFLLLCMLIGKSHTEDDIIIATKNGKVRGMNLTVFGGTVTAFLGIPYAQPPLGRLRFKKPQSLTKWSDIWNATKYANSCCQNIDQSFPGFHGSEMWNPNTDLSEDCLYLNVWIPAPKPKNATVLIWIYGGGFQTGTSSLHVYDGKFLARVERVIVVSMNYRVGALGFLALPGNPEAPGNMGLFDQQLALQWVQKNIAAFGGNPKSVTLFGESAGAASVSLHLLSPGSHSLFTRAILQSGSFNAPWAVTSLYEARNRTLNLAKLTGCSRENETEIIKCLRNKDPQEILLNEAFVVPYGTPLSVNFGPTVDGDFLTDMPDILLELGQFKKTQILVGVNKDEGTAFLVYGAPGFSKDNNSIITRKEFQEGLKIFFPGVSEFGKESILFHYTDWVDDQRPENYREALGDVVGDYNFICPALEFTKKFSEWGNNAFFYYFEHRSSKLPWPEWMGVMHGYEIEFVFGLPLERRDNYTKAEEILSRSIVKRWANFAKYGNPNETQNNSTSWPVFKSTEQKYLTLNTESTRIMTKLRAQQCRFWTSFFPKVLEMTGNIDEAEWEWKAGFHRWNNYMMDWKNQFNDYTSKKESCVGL

[4] = Inhibition of human intestinal carboxylesterase

For `O=C(C(=O)C1CCCCC1)C1CCCCC1`, the Ki [1] was 0.072 µM, the Ki [2] was > 100 µM and the Ki [3] was > 100 µM. The Ki [4] was 0.005 µM.
For `O=C1Cc2ccccc2C1=O`, the Ki [1] was 5.24 µM, the Ki [2] was > 100 µM and the Ki [3] was 2.63 µM. The Ki [4] was 5.47 µM.
For `O=C1C(=O)c2ccc([N+](=O)[O-])c3c([N+](=O)[O-])ccc1c23`, the Ki [1] was 0.57 µM, the Ki [2] was 0.903 µM and the Ki [3] was 3.1 µM. It also gave a Ki [4] of 0.62 µM.
For `O=C1C(=O)c2cccc3c2N(CCC3)C1=O`, the Ki [1] was 5.38 µM, the Ki [2] was > 100 µM and the Ki [3] was > 100 µM. The Ki [4] was > 100 µM.
In the case of `COc1ccccc1C(=O)C(=O)c1ccccc1OC`, the Ki [1] is reported as > 100 µM, the Ki [3] is reported as > 100 µM and the Ki [4] is reported as > 100 µM.
With `O=C1C(=O)c2c3ccccc3cc3cccc1c23` the Ki [1] was 0.0015 µM, the Ki [2] was > 100 µM and the Ki [3] was > 100 µM. The Ki [4] was 0.0077 µM.
For `O=C1C(=O)c2cccnc2-c2ncccc21`, the Ki [1] was 5.4 µM, the Ki [2] was > 100 µM and the Ki [3] was > 100 µM. The Ki [4] was > 100 µM.
With `COc1ccc(C(=O)C(=O)c2ccc(C(=O)O)cc2)cc1` the Ki [2] was > 100 µM and the Ki [3] was > 100 µM.
In the case of `O=C1C(=O)c2ccccc2CCc2ccccc21`, the Ki [1] is reported as 2.98 µM, the Ki [2] is reported as > 100 µM and the Ki [3] is reported as > 100 µM. For the same compound, the Ki [4] was 6.15 µM.
With `CCOc1ccc(C(=O)C(=O)c2ccc(OCC)cc2)cc1` the Ki [1] was > 100 µM, the Ki [2] was > 100 µM and the Ki [3] was > 100 µM. It also gave a Ki [4] of 1.42 µM.
With `O=C(C(=O)c1ccc([N+](=O)[O-])cc1)c1ccc([N+](=O)[O-])cc1` the Ki [1] was 9.8 µM, the Ki [2] was > 100 µM and the Ki [3] was > 100 µM. It also gave a Ki [4] of 0.47 µM.
In the case of `Cc1cc(C)c(C(=O)C(=O)c2c(C)cc(C)cc2C)c(C)c1`, the Ki [1] is reported as > 100 µM, the Ki [2] is reported as > 100 µM and the Ki [3] is reported as > 100 µM. It also gave a Ki [4] of 4.04 µM.
For `O=C1C(=O)N2CCCc3cccc1c32`, the Ki [1] was 1.54 µM, the Ki [2] was > 100 µM and the Ki [3] was > 100 µM. For the same compound, the Ki [4] was 4.13 µM.
With `O=C1C(=O)c2sccc2-c2ccsc21` the Ki [1] was 0.15 µM, the Ki [2] was > 100 µM and the Ki [3] was > 100 µM. For the same compound, the Ki [4] was 0.85 µM.
In the case of `O=C1C(=O)c2cc([N+](=O)[O-])ccc2-c2ccccc21`, the Ki [1] is reported as 0.0159 µM, the Ki [2] is reported as 0.85 µM and the Ki [3] is reported as 1.67 µM. It also gave a Ki [4] of 0.107 µM.
In the case of `CC1(C)[C@@H]2CC[C@]1(C)C(=O)C2=O` (racemic), the Ki [1] is reported as > 100 µM, the Ki [2] is reported as > 100 µM and the Ki [3] is reported as > 100 µM. The Ki [4] was > 100 µM.
With `O=C1C=Cc2ccccc2C1=O` [1,2-NAPHTHOQUINONE] the Ki [1] was 0.93 µM, the Ki [2] was 0.32 µM and the Ki [3] was 2.29 µM. The Ki [4] was 2.4 µM.
With `O=C1C(=O)c2ccccc2-c2ccccc21` [9,10-PHENANTHRENEQUINONE] the Ki [1] was 0.0025 µM, the Ki [2] was > 100 µM and the Ki [3] was 0.19 µM.
In the case of `O=C1C(=O)c2cccc3cccc1c23` [ACENAPHTHOQUINONE], the Ki [1] is reported as 0.031 µM, the Ki [2] is reported as > 100 µM and the Ki [3] is reported as 2.97 µM.
